Assay results as given in US20100204202A1, “DRUG FOR ALLEVIATING MOTOR COMPLICATIONS OR PSYCHIATRIC SYMPTOMS OF PARKINSON'S DISEASE” (Asubio Pharma Co., Ltd., priority 2007, published 2010).
Entries after “also recorded” stand apart in the source; their conditions may differ. Where a name gives a salt, the structure may show the parent alone.

Key:
[1] = biological target: T1, human dopamine D2S receptors (Homo sapiens, UniProt P14416); test: Binding affinity test on human dopamine D2S receptors ([3H]spiperone, CHO membranes); details: for Ki: Dopamine D2S; for binding affinity (in words): human dopamine D2S receptors
T1 construct: expressed in transfected cells; host or cells: CHO
T1 sequence (P14416 1-414 isoform P14416-2): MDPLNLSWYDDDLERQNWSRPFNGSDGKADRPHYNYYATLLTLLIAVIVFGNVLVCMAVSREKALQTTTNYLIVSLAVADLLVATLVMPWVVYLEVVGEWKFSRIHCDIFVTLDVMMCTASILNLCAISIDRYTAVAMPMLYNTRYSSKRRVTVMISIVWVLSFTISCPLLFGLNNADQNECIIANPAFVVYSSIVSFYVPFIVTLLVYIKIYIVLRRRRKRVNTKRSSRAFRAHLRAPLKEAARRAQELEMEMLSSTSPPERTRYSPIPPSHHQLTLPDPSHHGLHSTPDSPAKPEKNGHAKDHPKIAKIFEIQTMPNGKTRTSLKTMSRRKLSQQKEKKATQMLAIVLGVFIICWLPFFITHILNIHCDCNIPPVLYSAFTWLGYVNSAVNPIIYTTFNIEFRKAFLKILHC
Experimental: For the test, membrane specimens prepared from Chinese hamster ovary (CHO) cells expressing human dopamine D2S receptors were used. To a 50 mM Tris-HCl (pH 7.4) buffer containing 1.4 mM ascorbic acid, 0.001% BSA, and 150 mM NaCl, [^3H] spiperone (final concentration 0.16 nM), the test sample solution and a membrane specimen were added. The reaction solution was allowed to react at 25° C. for 2 hours, then the reaction solution was filtered with a cell harvester, the filtered filter paper was transferred to a measurement vial, a liquid scintillator was added, and the receptor bond radioactivity remaining on the filter paper was determined with a liquid scintillation counter. The nonspecific bonds were defined as the amount of bonds in the presence of 10 μM haloperidol.
The following formula was used to calculate the binding inhibition rate: […]
From the binding inhibition rate, a regression formula was used to calculate the 50% inhibition concentration. Furthermore, the inhibition constant (Ki) was calculated.

[2] = test system: Parkinson's disease model rats; test: Hyperkinesia of the forelimbs and shortening of rotational behavior duration induced by repeated doses of levodopa; format: in vivo, rat; details: for rats that did not exhibit rotational behavior: 5 mg/kg oral
Source text: In rats with unilateral nigrostriatal dopamine nerve destruction generally used as Parkinson's disease animal models, it became clear that by administering levodopa by repeated dosage for about 5 weeks, behavior resembling the symptoms of advanced stage Parkinson's disease appeared. That is, in Parkinson's disease model rats prepared in the same way as in Example 4, along with repeated doses of levodopa, abnormal behavior such as involuntary extending of the forelimb or opening or closing of the hand, up-and-down movement of the wrist, choreiform tremor in the forelimb on the opposite side of microinjection of 6-hydroxydopamine was observed (FIG. 3). This abnormal behavior is reported by Steece-Collier et al. (Steece-Collier K. et al., “Embryonic mesencephalic grafts increase levodopa-induced forelimb hyperkinesia in parkinsonian rats”, Movement Disorders, 2003, 18, p. 1442-1454) as hyperkinesia of the forelimbs.
This appears dependent on the period of repeated doses of levodopa and reportedly is similar to clinical dyskinesia. […] Bibbiani et al. (Bibbiani F. et al., “Serotonin 5-HT1A agonist improves motor complications in rodent and primate parkinsonian models”, Neurology, 2001, 57, p. 1829-1834) report that in Parkinson's disease model rats, along with repeated doses of levodopa, a shortening of the rotational behavior duration is observed and that this phenomenon resembles the wearing off phenomenon in clinical studies.
That is, they treated each group by repeated doses of levodopa and repeated dosage of the tested substance for about 2 weeks (Monday to Friday) and observed the hyperkinesia of the forelimbs and rotational behavior after levodopa administration. Note that the SUN N4057 was subcutaneously administered right before levodopa administration, the sarizotan was orally administered about 20 minutes before levodopa dosage in accordance with above-mentioned known reports (Bibbiani F. et al., Neurology, 2001, 57, p. 1829-1834), and the Example Compound 4 of Japanese Patent Publication No. 2005-298402A was subcutaneously administered about 30 minutes before levodopa dosage in accordance with the above-mentioned Japanese Patent Publication No. 2005-298402A. Further, for the solvent, for SUN N4057 and Example Compound 4 of Japanese Patent Publication No. 2005-298402A, physiological saline was used.
In the same way as Example 4, Parkinson's disease model rats were prepared and the rats treated by repeated doses of levodopa (twice a day, Monday to Friday) for 5 weeks and measured for hyperkinesia of the forelimbs and rotational behavior. Further, based on the results of the hyperkinesia of the forelimbs and rotational behavior duration, the rats were assigned to the groups so as to prevent any significant difference between them, then the effects of the tested substances on these behaviors resembling symptoms of advanced stage Parkinson's disease patients were compared and studied. […] Note that compound Ib (0.3, 1 mg/kg) and compound Ic (0.3, 1 mg/kg) were both intraperitoneally administered right before levodopa administration. For the solvent, physiological saline was used.

[3] = 1, 3 mg/kg s.c. repeated 2 weeks
[4] = 0.03, 0.1 mg/kg s.c. repeated 2 weeks

Row | Ki [1] [nM] | binding affinity (in words) [1] | SMILES | rotational behavior duration ([2]; 3 mg/kg s.c. repeated 2 weeks) | end of the rotational behavior [2, 3] | start of rotational behavior [2, 3] | hyperkinesia of the forelimbs ([2]; 1, 3 mg/kg s.c. repeated 2 weeks, vs physiological saline group, dihydrochloride) | hyperkinesia of the forelimbs ([2]; 0.03 mg/kg s.c. repeated 2 weeks, 1 hour after levodopa dosage) | hyperkinesia of the forelimbs ([2]; 0.1 mg/kg s.c. repeated 2 weeks, 1 and 2 hours after levodopa dosage) | end of the rotational behavior [2, 4] | rotational behavior duration [2, 4] | rotational behavior duration ([2]; 5 mg/kg oral repeated 2 weeks) | hyperkinesia of the forelimbs ([2]; 5 mg/kg oral repeated 2 weeks, 1 hour after levodopa dosage, p=0.099) | rats that did not exhibit rotational behavior ([2]; 30 minutes after levodopa dosage) | rats that did not exhibit rotational behavior ([2]; 1 hour after levodopa dosage) | start of rotational behavior due to levodopa dosage ([2]; 1 and 5 mg/kg oral repeated 2 weeks) | hyperkinesia of the forelimbs, compared with the solvent group (Dunnett's test) ([2]; repeated oral administration, week 7 of levodopa)
1 | 6.34 | comparatively strong binding affinity | Cl.Cl.O=c1[nH]c2cccc(C3CCCN(Cc4cncc(-c5ccc(F)cc5)c4)C3)c2o1 (stereo not shown) [7-(1-{[5-(4-fluorophenyl)pyridin-3-yl]methyl}piperidin-3-yl)-1,3-benzoxazol-2(3H)-one dihydrochloride] | significant prolongation | prolonged | started earlier | no action was exhibited; also recorded: no significant difference |  |  |  |  |  |  |  |  |  | 
2 | 2.56 | comparatively strong binding affinity | Cl.Cl.Fc1ccc(-c2cncc(CNC[C@H]3CCc4ccccc4O3)c2)cc1 [Sarizotan, 1-[(2R)-3,4-dihydro-2H-chromen-2-yl]-N-{[5-(4-fluorophenyl)pyridin-3-yl]methyl}methanamine dihydrochloride] |  |  |  |  |  |  |  |  | significant shortening | tendency of the hyperkinesia of the forelimbs to be inhibited | Six out of nine | three out of nine | delay in the start of rotational behavior | no significant difference

Row | SMILES | Ki [1] [nM] | binding affinity (in words) [1] | rotational behavior duration ([2]; 3 mg/kg s.c. repeated 2 weeks) | end of the rotational behavior [2, 3] | start of rotational behavior [2, 3] | hyperkinesia of the forelimbs ([2]; 1, 3 mg/kg s.c. repeated 2 weeks, vs physiological saline group, dihydrochloride) | hyperkinesia of the forelimbs ([2]; 0.03 mg/kg s.c. repeated 2 weeks, 1 hour after levodopa dosage) | hyperkinesia of the forelimbs ([2]; 0.1 mg/kg s.c. repeated 2 weeks, 1 and 2 hours after levodopa dosage) | end of the rotational behavior [2, 4] | rotational behavior duration [2, 4] | rotational behavior duration ([2]; 5 mg/kg oral repeated 2 weeks) | hyperkinesia of the forelimbs ([2]; 5 mg/kg oral repeated 2 weeks, 1 hour after levodopa dosage, p=0.099) | rats that did not exhibit rotational behavior ([2]; 30 minutes after levodopa dosage) | rats that did not exhibit rotational behavior ([2]; 1 hour after levodopa dosage) | start of rotational behavior due to levodopa dosage ([2]; 1 and 5 mg/kg oral repeated 2 weeks) | hyperkinesia of the forelimbs, compared with the solvent group (Dunnett's test) ([2]; repeated oral administration, week 7 of levodopa)
3 | O=C1c2ccccc2OC=C(Cl)N1CCCCN1CC=C(c2ccccn2)CC1 [SUN N4057, 3-chloro-4,5-dihydro-4-{4-[4-(2-pyridyl)-1,2,3,6-tetrahydropyridin-1-yl]butyl}-1,4-benzoxazepin-5-one.dihydrochloride-dihydrate] | 162 |  |  |  |  |  | significantly inhibited | significantly inhibited | significantly prolonged | significantly prolonged |  |  |  |  |  | 
